What was measured:
[1] = system: Plasmodium falciparum; test: Antiplasmodial activity against chloroquine-sensitive Plasmodium falciparum D10 infected in human RBC after 72 hrs by parasite lactate dehydrogenase assay; format: functional, organism-based; settings: D10, 72 h
[2] = system: Plasmodium falciparum; test: Antiplasmodial activity against chloroquine-resistant Plasmodium falciparum W2 infected in human RBC after 72 hrs by parasite lactate dehydrogenase assay; format: functional, organism-based; settings: W2, 72 h
[3] = system: Salmonella typhimurium; test: Mutagenicity against Salmonella typhimurium TA100 assessed as revertants at 70 uM incubated for 90 mins followed by drug washout measured after 2 days relative to positive control; format: toxicity, organism-based; settings: salmonella enterica subsp. enterica serovar typhimurium
[4] = system: Salmonella typhimurium; test: Mutagenicity against Salmonella typhimurium TA100 assessed as revertants at 2 uM incubated for 90 mins followed by drug washout measured after 2 days relative to positive control; format: toxicity, organism-based; settings: salmonella enterica subsp. enterica serovar typhimurium
[5] = system: Salmonella typhimurium; test: Mutagenicity against Salmonella typhimurium TA100 assessed as revertants at 18 uM incubated for 90 mins followed by drug washout measured after 2 days relative to positive control; format: toxicity, organism-based; settings: salmonella enterica subsp. enterica serovar typhimurium
[6] = system: Plasmodium falciparum; test: Resistance ratio of IC50 for chloroquine-resistant Plasmodium falciparum W2 to IC50 for chloroquine-sensitive Plasmodium falciparum D10; format: functional
[7] = Cytotoxicity against human HepG2 cells after 24 hrs by neutral red dye uptake assay; format: cell-based; settings: read-out: TC50
[8] = system: Salmonella typhimurium; test: Mutagenicity against Salmonella typhimurium TA100 assessed as revertants at 9 uM incubated for 90 mins followed by drug washout measured after 2 days relative to positive control; format: toxicity, organism-based; settings: salmonella enterica subsp. enterica serovar typhimurium, 1.5 h
[9] = system: Salmonella typhimurium; test: Mutagenicity against Salmonella typhimurium TA100 assessed as revertants at 4 uM incubated for 90 mins followed by drug washout measured after 2 days relative to positive control; format: toxicity, organism-based; settings: salmonella enterica subsp. enterica serovar typhimurium, 1.5 h
[10] = system: Salmonella typhimurium; test: Mutagenicity against Salmonella typhimurium TA98 assessed as revertants at 2 uM incubated for 90 mins followed by drug washout measured after 2 days relative to positive control; format: toxicity, organism-based; settings: salmonella enterica subsp. enterica serovar typhimurium, 1.5 h
[11] = system: Plasmodium falciparum; test: Resistance ratio of IC50 for chloroquine-resistant Plasmodium falciparum K1 to IC50 for chloroquine-sensitive Plasmodium falciparum NF54; format: functional
[12] = system: Plasmodium falciparum; test: Antiplasmodial activity against chloroquine-resistant Plasmodium falciparum K1 infected in human erythrocytes assessed as inhibition of [3H]hypoxanthine incorporation incubated for 48 hrs prior to [3H]hypoxanthine addition measured after 48 hrs by liquid scintillation counting; format: functional, organism-based
[13] = system: Salmonella typhimurium; test: Mutagenicity against Salmonella typhimurium TA98 assessed as revertants at 18 uM incubated for 90 mins followed by drug washout measured after 2 days relative to positive control; format: toxicity, organism-based; settings: salmonella enterica subsp. enterica serovar typhimurium
[14] = Cytotoxicity against mouse NIH3T3 cells after 24 hrs by neutral red dye uptake assay; format: cell-based; settings: read-out: TC50
[15] = system: Plasmodium falciparum; test: Antiplasmodial activity against chloroquine-sensitive Plasmodium falciparum NF54 infected in human erythrocytes assessed as inhibition of [3H]hypoxanthine incorporation incubated for 48 hrs prior to [3H]hypoxanthine addition measured after 48 hrs by liquid scintillation counting; format: functional, organism-based
[16] = system: Salmonella typhimurium; test: Mutagenicity against Salmonella typhimurium TA98 assessed as revertants at 4 uM incubated for 90 mins followed by drug washout measured after 2 days relative to positive control; format: toxicity, organism-based; settings: salmonella enterica subsp. enterica serovar typhimurium
[17] = system: Salmonella typhimurium; test: Mutagenicity against Salmonella typhimurium TA98 assessed as revertants at 35 uM incubated for 90 mins followed by drug washout measured after 2 days relative to positive control; format: toxicity, organism-based; settings: salmonella enterica subsp. enterica serovar typhimurium, 1.5 h
[18] = system: Salmonella typhimurium; test: Mutagenicity against Salmonella typhimurium TA100 assessed as revertants at 35 uM incubated for 90 mins followed by drug washout measured after 2 days relative to positive control; format: toxicity, organism-based; settings: salmonella enterica subsp. enterica serovar typhimurium
[19] = system: Salmonella typhimurium; test: Mutagenicity against Salmonella typhimurium TA98 assessed as revertants at 70 uM incubated for 90 mins followed by drug washout measured after 2 days relative to positive control; format: toxicity, organism-based; settings: salmonella enterica subsp. enterica serovar typhimurium
[20] = system: Salmonella typhimurium; test: Mutagenicity against Salmonella typhimurium TA98 assessed as revertants at 9 uM incubated for 90 mins followed by drug washout measured after 2 days relative to positive control; format: toxicity, organism-based; settings: salmonella enterica subsp. enterica serovar typhimurium

Clc1ccc(C(Nc2ccnc3cc(Cl)ccc23)c2ccc(Cn3ccnc3)cc2)cc1 (racemic)
IC50 [1]: 30 nM | IC50 [2]: 57 nM | Activity [3]: 2% | Activity [4]: 6% | Activity [5]: 5% | Ratio IC50 [6]: 1.9 | CC50 at 24 h [7]: 22 µM | Activity [8]: 7% | Activity [9]: 6% | Activity [10]: 0% | Ratio IC50 [11]: 1.2 | IC50 [12]: 22 nM | Activity [13]: 3% | CC50 at 24 h [14]: 35 µM | IC50 [15]: 18 nM | Activity [16]: 7% | Activity [17]: 3% | Activity [18]: 2% | Activity [19]: 2% | Activity [20]: 0%

— ChEMBL document CHEMBL2169878 (J Med Chem, 2012)
